Results taken from patent US11083728B2, “Compositions of cyclin dependent kinase 7 (CDK7) inhibitor” (Syros Pharmaceuticals, Inc., priority 2017, dated 2021).
Values after ≈ are worked out from the molar mass of the structure shown. Like-named read-outs stand apart in the source and are kept apart here.

Assays:
Format in all cases: physicochemical
[1] = Stability of reconstituted solution of the particulate composition (5 mg/mL)
Protocol: The stability of the reconstituted solution of the particulate composition of Compound 1 of Example 1 was determined up to 4 hours. Duplicate vials of Compound 1 were reconstituted each with 5 mL of Water for Injection, USP.

[2] = Infusion solution stability in 0.9% Sodium Chloride for Injection; settings: for Change in concentration: initial vs 4 hours at ambient temperature and light
Protocol: For the infusion solution stability study, duplicate dilutions of the reconstituted Compound 1 in 0.9% Sodium Chloride for Injection, LISP to provide the low (0.01 mg/mL) and high dose (0.6 mg/mL) were prepared. Infusion bags and sets used were made of polyolefin and polyethylene-lined respectively. To bracket the concentrations to be used in the clinic, two concentrations (0.01 mg/mL and 0.6 mg/mL of Compound 1) representing lowest and highest doses were selected. The stability of low and high dose infusion bag dilution is summarized in Table 3 and Table 4, respectively.

[3] = Long-term storage stability in co-solvents PEG 300 and PEG 400
[4] = Equilibrium solubility in various pharmaceutical excipients
[5] = reconstituted solution 5 mg/mL, 4 hours
[6] = reconstituted solution 5 mg/mL, Initial
[7] = reconstituted solution, initial vs 4 hours at room temperature and light
[8] = infusion solution 0.01 mg/mL, 4 hours
[9] = infusion solution 0.01 mg/mL, Initial
[10] = infusion solution 0.6 mg/mL, 4 hours
[11] = infusion solution 0.6 mg/mL, Initial

Compound 1 concentration [1, 5]: 4.48 mg/mL
Impurities, RRT 1.04 [1, 5]: RRT 1.04 = 0.70% a/a
Impurities, RRT 1.23 [1, 5]: RRT 1.23 = 0.07% a/a
Impurities, RRT 1.44 [1, 5]: RRT 1.44 = 0.59% a/a
Impurities, RRT 1.47 [1, 5]: RRT 1.47 = 0.42% a/a
Impurities, RRT 1.61 [1, 5]: RRT 1.61 = 0.09% a/a
Impurities, Total [1, 5]: Total = 1.9% a/a
pH [1, 5]: 3.2
Appearance ([1]; reconstituted solution 5 mg/mL, 4 hours, room temperature and light): Yellowish Clear solution
Compound 1 concentration [1, 6]: 4.75 mg/mL
Impurities, RRT 1.04 [1, 6]: RRT 1.04 = 0.71% a/a
Impurities, RRT 1.23 [1, 6]: RRT 1.23 = 0.10% a/a
Impurities, RRT 1.46 [1, 6]: RRT 1.46 = 0.55% a/a
Impurities, RRT 1.48 [1, 6]: RRT1.48 = 0.4 % a/a
Impurities, RRT 1.62 [1, 6]: RRT1.62 = 0.0 % a/a
Impurities, Total [1, 6]: Total = 1.9% a/a
pH [1, 6]: 3.2
Appearance ([1]; reconstituted solution 5 mg/mL, Initial, n = 2): Yellowish Clear solution
Change in appearance and pH [1, 7]: unchanged
Change in concentration of Compound 1 [1, 7]: slight decrease
Change in impurities [1, 7]: no measurable change
Change in concentration ([2]; high dose (0.6 mg/mL)): no changes
Appearance [2, 8]: Yellowish Clear solution
Compound 1 concentration [2, 8]: 0.0099 mg/mL
pH [2, 8]: 8.1
Appearance [2, 9]: Yellowish Clear solution
Compound 1 concentration [2, 9]: 0.0096 mg/mL
pH [2, 9]: 7.6
Appearance [2, 10]: Yellowish Clear
Compound 1 concentration [2, 10]: 0.551 mg/mL
Impurities, RRT 1.03 [2, 10]: RRT 1.03 = 0.71% a/a
Impurities, RRT 1.22 [2, 10]: RRT 1.22 = 0.06% a/a
Impurities, RRT 1.43 [2, 10]: RRT = 1.43 = 0.51% a/a
Impurities, RRT 1.60 [2, 10]: RRT = 1.60 = 0.08% a/a
Impurities, Total [2, 10]: Total = 1.4% a/a
pH [2, 10]: 3.6
Appearance [2, 11]: Yellowish Clear
Compound 1 concentration [2, 11]: 0.552 mg/mL
Impurities, RRT 1.03 [2, 11]: RRT 1.03 = 0.71% a/a
Impurities, RRT 1.22 [2, 11]: RRT 1.22 = 0.06% a/a
Impurities, RRT 1.43 [2, 11]: RRT = 1.43 = 0.51% a/a
Impurities, RRT 1.60 [2, 11]: RRT = 1.60 = 0.08% a/a
Impurities, Total [2, 11]: Total = 1.4% a/a
pH [2, 11]: 3.6
Change in concentration ([2]; low dose (0.01 mg/mL)): no changes
Change in pH ([2]; low dose dilution (0.01 mg/mL), initial vs 4 hours): increase
Stability on long-term storage [3]: unstable
solubility ([4]; 50 mM Borate pH 10): <LOQ
solubility ([4]; 50 mM KCl, pH 2, simulated gastric fluid, thermodynamic from solid, 50 mM KCl, pH 2, read-out: Solubility): 3600 µg/mL (≈ 6.13 mM)
solubility ([4]; 50 mM Phosphate pH 8): <LOQ
solubility ([4]; 50 mM citrate, pH 4, aqueous buffer, thermodynamic from solid, 50 mM Citrate pH 4, read-out: Solubility): 3.7 µg/mL (≈ 0.0063 mM)
solubility ([4]; 50 mM phosphate buffer, pH 6, aqueous buffer, thermodynamic from solid, 50 mM Phosphate pH 6, read-out: Solubility): 1.9 µg/mL (≈ 0.00324 mM)
solubility ([4]; 10% Captisol in phosphate buffer, pH 5.5, aqueous with cosolvent or surfactant or cyclodextrin, thermodynamic from solid, 10% Captisol, pH 5.5 (phosphate buffer), read-out: Solubility): 4600 µg/mL (≈ 7.83 mM)
solubility ([4]; 20% Captisol in phosphate buffer, pH 5.5, aqueous with cosolvent or surfactant or cyclodextrin, thermodynamic from solid, 20% Captisol, pH 5.5 (phosphate buffer), read-out: Solubility): 5900 µg/mL (≈ 10 mM)
solubility ([4]; 20% Captisol, 0.1% Tween 80, pH adjusted with HCl, pH 3.5, aqueous with cosolvent or surfactant or cyclodextrin, thermodynamic from solid, 20% Captisol, 0.1% Tween 80, pH 3.5, (HCl), read-out: Solubility): > 10000 µg/mL
Solubility (in words) ([4]; Captisol, especially with acidic conditions (pH 3-4) and Tween 80): good solubility
solubility ([4]; PEG 300): >19400 µg/mL
solubility ([4]; PEG 300, organic solvent or mixture, thermodynamic from solid, PEG 300, read-out: Solubility): > 19000 µg/mL
solubility ([4]; PEG 400): >20800 µg/mL
solubility ([4]; PEG 400, organic solvent or mixture, thermodynamic from solid, PEG 400, read-out: Solubility): > 19000 µg/mL
solubility ([4]; Sorensen phosphate Buffer): <LOQ
solubility ([4]; Tween 80, aqueous with cosolvent or surfactant or cyclodextrin, thermodynamic from solid, Tween 80, read-out: Solubility): 18300 µg/mL (≈ 31.2 mM)
solubility ([4]; dehydrated alcohol, organic solvent or mixture, thermodynamic from solid, Dehydrated Alcohol, read-out: Solubility): 3600 µg/mL (≈ 6.13 mM)
Solubility (in words) ([4]; in water): poorly soluble
solubility ([4]; propylene glycol, organic solvent or mixture, thermodynamic from solid, Propylene Glycol, read-out: Solubility): 4000 µg/mL (≈ 6.81 mM)
solubility ([4]; t-butanol, organic solvent or mixture, thermodynamic from solid, t-Butanol, read-out: Solubility): 3200 µg/mL (≈ 5.45 mM)
solubility ([4]; water, thermodynamic from solid, Water, read-out: Solubility): 0.12 µg/mL (≈ 0.000204 mM)
Compound: CN(C)C/C=C/C(=O)Nc1ccc(C(=O)N[C@@]2(C)CCC[C@@H](Nc3ncc(Cl)c(-c4c[nH]c5ccccc45)n3)C2)nc1 [Compound 1, N-((1S,3R)-3-(5-chloro-4-(1H-indol-3-yl)pyrimidin-2-ylamino)-1-methylcyclohexyl)-5-((E)-4-(dimethylamino)but-2-enamido)picolinamide]
